The results in this text go back to patent publication US20220387608A1, “ADRENOMEDULLIN-ANALOGUES FOR LONG-TERM STABILIZATION AND THEIR USE” (Bayer Aktiengesellschaft, priority 2019, published 2022).

This experiment concerns the target T1, AM1R (Homo sapiens, UniProt O60895+Q16602).
T1 construct: EYFP; ECFP; expressed in transfected cells; host or cells: HEK-293 (transient co-transfection)
Put plainly: Activity determination in vitro: cAMP/CRE-luciferase reporter assay in HEK293 cells transiently co-transfected with CLR and RAMP2. Format: cell-based. Conditions: for Emax: HEK293, normalized to [G14]ADM(14-52); for EC50: HEK293 with CLR/RAMP2, CRE-luciferase, 3 h stimulation. In outline:
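HEK-293 cells transiently co-transfected with CLR-EYFP, RAMP2-ECFP and a CRE-luc2P reporter, stimulated 3 h at 37° C with eight ligand concentrations in triplicate. Luminescence read by ONE-Glo, corrected to 5 μM forskolin, normalized to [G14]ADM(14-52) standard, and fitted by non-linear regression.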

Positions of bridges follow the written chain, without caps; N, C: chain ends. Non-standard residues stand in square brackets, D forms with d. Residues, ends and D or L forms follow the SMILES beside them. *: point of attachment. C18 diacid = O=C(O)CCCCCCCCCCCCCCCCC(=O)*; PEG3 = NCCOCCOCCOCCC(=O)O; Dap = NC[C@H](N)C(=O)O

T1 sequence (Q16602 23-461): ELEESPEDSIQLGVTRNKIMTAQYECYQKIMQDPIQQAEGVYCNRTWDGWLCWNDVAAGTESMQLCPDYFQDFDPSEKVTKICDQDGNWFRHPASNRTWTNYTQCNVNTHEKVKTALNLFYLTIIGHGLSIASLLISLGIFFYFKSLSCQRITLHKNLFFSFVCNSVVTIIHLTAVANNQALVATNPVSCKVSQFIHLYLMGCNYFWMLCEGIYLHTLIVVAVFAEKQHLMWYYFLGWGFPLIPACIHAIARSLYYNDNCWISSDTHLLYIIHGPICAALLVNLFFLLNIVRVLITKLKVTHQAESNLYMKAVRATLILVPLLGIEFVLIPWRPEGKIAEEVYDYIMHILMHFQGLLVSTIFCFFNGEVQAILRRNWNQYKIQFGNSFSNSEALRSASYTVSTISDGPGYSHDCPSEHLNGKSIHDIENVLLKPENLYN
T1 sequence (O60895 43-175): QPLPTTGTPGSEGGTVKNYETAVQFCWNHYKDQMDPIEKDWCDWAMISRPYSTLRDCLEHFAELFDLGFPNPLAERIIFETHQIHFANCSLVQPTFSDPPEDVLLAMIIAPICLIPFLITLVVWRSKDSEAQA

Compound `CC[C@H](C)[C@H](NC(=O)[C@H](CCC(N)=O)NC(=O)[C@H](Cc1c[nH]cn1)NC(=O)[C@H](C)NC(=O)[C@H](CC(C)C)NC(=O)[C@H](CCCCN)NC(=O)[C@H](CCC(N)=O)NC(=O)[C@@H](NC(=O)[C@@H](NC(=O)[C@@H]1CSSC[C@H](NC(=O)CNC(=O)[C@@H](N)CCCCNC(=O)CCCCCCCCCCCCCCCCC(=O)O)C(=O)N[C@@H](CCCNC(=N)N)C(=O)N[C@@H](Cc2ccccc2)C(=O)NCC(=O)N[C@@H]([C@@H](C)O)C(=O)N1)[C@@H](C)O)C(C)C)C(=O)N[C@@H](Cc1ccc(O)cc1)C(=O)N[C@@H](CCC(N)=O)C(=O)N[C@@H](Cc1ccccc1)C(=O)N[C@H](C(=O)NCCOCCOCCOCCC(=O)N[C@@H](CC(=O)O)C(=O)N[C@@H](CC(N)=O)C(=O)N[C@H](C(=O)N[C@@H](C)C(=O)N1CCC[C@H]1C(=O)N[C@H]1CCCCNC(=O)C[C@@H](C(=O)N2CCC[C@H]2C(=O)N[C@@H](CCC(N)=O)C(=O)NCC(=O)N[C@@H](Cc2ccc(O)cc2)C(N)=O)NC(=O)[C@H]([C@@H](C)CC)NC(=O)[C@H](CCCCN)NC(=O)[C@H](CO)NC1=O)C(C)C)[C@@H](C)O` [Example 14] (H-K(C18 diacid)GCRFGTCTVQKLAHQIYQFT[PEG3]DNVAPKSKIDPQGY-NH2; disulfide 3-8; lactam 28-32) registered an Emax of 92 ± 5% and an EC50 of 6.6 nM.
Take `CC[C@H](C)[C@H](NC(=O)[C@H](CCC(N)=O)NC(=O)[C@H](Cc1c[nH]cn1)NC(=O)[C@H](C)NC(=O)[C@H](CC(C)C)NC(=O)[C@H](CCCCN)NC(=O)[C@H](CCC(N)=O)NC(=O)[C@@H](NC(=O)[C@@H](NC(=O)[C@@H]1CCC(=O)NC[C@H](NC(=O)CNC(=O)[C@@H](N)CCCCNC(=O)CCCCCCCCCCCCCCCCC(=O)O)C(=O)N[C@@H](CCCNC(=N)N)C(=O)N[C@@H](Cc2ccccc2)C(=O)NCC(=O)N[C@@H]([C@@H](C)O)C(=O)N1)[C@@H](C)O)C(C)C)C(=O)N[C@@H](Cc1ccc(O)cc1)C(=O)N[C@@H](CCC(N)=O)C(=O)N[C@@H](Cc1ccccc1)C(=O)N[C@H](C(=O)N[C@@H](CC(=O)O)C(=O)N[C@@H](CCCCN)C(=O)N[C@@H](CC(=O)O)C(=O)N[C@@H](CCCCN)C(=O)N[C@@H](CC(=O)O)C(=O)N[C@@H](CC(N)=O)C(=O)N[C@H](C(=O)N[C@@H](C)C(=O)N1CCC[C@H]1C(=O)N[C@@H](CCCNC(=N)N)C(=O)N[C@@H](CO)C(=O)N[C@@H](CCCCN)C(=O)N[C@H](C(=O)N[C@@H](CO)C(=O)N1CCC[C@H]1C(=O)N[C@@H](CCC(N)=O)C(=O)NCC(=O)N[C@@H](Cc1ccc(O)cc1)C(N)=O)[C@@H](C)CC)C(C)C)[C@@H](C)O` [Example 15, ((3S,9S,12S,15S,21S)-15-(2-((S)-2-amino-6-(17-carboxyoctadecanamido)hexanamido)acetamido)-9-benzyl-12-(3-guanidinopropyl)-3-((R)-1-hydroxyethyl)-2,5,8,11,14,18-hexaoxo-1,4,7,10,13,17-hexaazacyclohenicosane-21-carbonyl)-L-threonyl-ADM(23-52)] (H-K(C18 diacid)G[Dap]RFGTETVQKLAHQIYQFTDKDKDNVAPRSKISPQGY-NH2; lactam 3-8): the Emax was 89 ± 2% and it took 3.4 nM to reach a half-maximal effect (EC50).
As for `CC[C@H](C)[C@H](NC(=O)[C@H](CCC(N)=O)NC(=O)[C@H](Cc1c[nH]cn1)NC(=O)[C@H](C)NC(=O)[C@H](CC(C)C)NC(=O)[C@H](CCCCN)NC(=O)[C@H](CCC(N)=O)NC(=O)[C@@H](NC(=O)[C@@H](NC(=O)[C@@H]1CCC(=O)NC[C@H](NC(=O)CNC(=O)[C@@H](N)CCCCNC(=O)CCCCCCCCCCCCCCCCC(=O)O)C(=O)N[C@@H](CCCNC(=N)N)C(=O)N[C@@H](Cc2ccccc2)C(=O)NCC(=O)N[C@@H]([C@@H](C)O)C(=O)N1)[C@@H](C)O)C(C)C)C(=O)N[C@@H](Cc1ccc(O)cc1)C(=O)N[C@@H](CCC(N)=O)C(=O)N[C@@H](Cc1ccccc1)C(=O)N[C@H](C(=O)N[C@@H](CC(=O)O)C(=O)N[C@@H](CCCCN)C(=O)N[C@@H](CC(=O)O)C(=O)N[C@@H](CCCCN)C(=O)N[C@@H](CC(=O)O)C(=O)N[C@@H](CC(N)=O)C(=O)N[C@H](C(=O)N[C@@H](C)C(=O)N1CCC[C@H]1C(=O)N[C@H]1CCCCNC(=O)C[C@@H](C(=O)N2CCC[C@H]2C(=O)N[C@@H](CCC(N)=O)C(=O)NCC(=O)N[C@@H](Cc2ccc(O)cc2)C(N)=O)NC(=O)[C@H]([C@@H](C)CC)NC(=O)[C@H](CCCCN)NC(=O)[C@H](CO)NC1=O)C(C)C)[C@@H](C)O` [Example 16] (H-K(C18 diacid)G[Dap]RFGTETVQKLAHQIYQFTDKDKDNVAPKSKIDPQGY-NH2; lactam 3-8, 31-35), the Emax came to 100 ± 5% and it took 1.4 nM to reach a half-maximal effect (EC50).
On the same counts, the results for `CC[C@H](C)[C@H](NC(=O)[C@H](CCC(N)=O)NC(=O)[C@H](Cc1c[nH]cn1)NC(=O)[C@H](C)NC(=O)[C@H](CC(C)C)NC(=O)[C@H](CCCCN)NC(=O)[C@H](CCC(N)=O)NC(=O)[C@@H](NC(=O)[C@@H](NC(=O)[C@@H]1CCC(=O)NC[C@H](NC(=O)CNC(=O)[C@@H](N)CCCCNC(=O)CCCCCCCCCCCCCCCCC(=O)O)C(=O)N[C@@H](CCCNC(=N)N)C(=O)N[C@@H](Cc2ccccc2)C(=O)NCC(=O)N[C@@H]([C@@H](C)O)C(=O)N1)[C@@H](C)O)C(C)C)C(=O)N[C@@H](Cc1ccc(O)cc1)C(=O)N[C@@H](CCC(N)=O)C(=O)N[C@@H](Cc1ccccc1)C(=O)N[C@H](C(=O)NCCOCCOCCOCCC(=O)N[C@@H](CC(=O)O)C(=O)N[C@@H](CC(N)=O)C(=O)N[C@H](C(=O)N[C@@H](C)C(=O)N1CCC[C@H]1C(=O)N[C@H]1CCCCNC(=O)C[C@@H](C(=O)N2CCC[C@H]2C(=O)N[C@@H](CCC(N)=O)C(=O)NCC(=O)N[C@@H](Cc2ccc(O)cc2)C(N)=O)NC(=O)[C@H]([C@@H](C)CC)NC(=O)[C@H](CCCCN)NC(=O)[C@H](CO)NC1=O)C(C)C)[C@@H](C)O` [Example 17] (H-K(C18 diacid)G[Dap]RFGTETVQKLAHQIYQFT[PEG3]DNVAPKSKIDPQGY-NH2; lactam 3-8, 28-32) are 77 ± 3% and 5 nM.
In the same order, the values of `CC[C@H](C)[C@H](NC(=O)[C@H](CCC(N)=O)NC(=O)[C@H](Cc1c[nH]cn1)NC(=O)[C@H](C)NC(=O)[C@H](CC(C)C)NC(=O)[C@H](CCCCN)NC(=O)[C@H](CCC(N)=O)NC(=O)[C@@H](NC(=O)[C@@H](NC(=O)[C@@H]1CSSC[C@H](NC(=O)CNC(=O)CN)C(=O)N[C@@H](CCCNC(=N)N)C(=O)N[C@@H](Cc2ccccc2)C(=O)NCC(=O)N[C@@H]([C@@H](C)O)C(=O)N1)[C@@H](C)O)C(C)C)C(=O)N[C@@H](Cc1ccc(O)cc1)C(=O)N[C@@H](CCC(N)=O)C(=O)N[C@@H](Cc1ccccc1)C(=O)N[C@H](C(=O)N[C@@H](CC(=O)O)C(=O)N[C@@H](CCCCN)C(=O)N[C@@H](CC(=O)O)C(=O)N[C@@H](CCCCN)C(=O)N[C@@H](CC(=O)O)C(=O)N[C@@H](CC(N)=O)C(=O)N[C@H](C(=O)N[C@@H](C)C(=O)N1CCC[C@H]1C(=O)N[C@@H](CCCNC(=N)N)C(=O)N[C@@H](CO)C(=O)N[C@@H](CCCCN)C(=O)N[C@H](C(=O)N[C@@H](CO)C(=O)N1CCC[C@H]1C(=O)N[C@@H](CCC(N)=O)C(=O)NCC(=O)N[C@@H](Cc1ccc(O)cc1)C(N)=O)[C@@H](C)CC)C(C)C)[C@@H](C)O` [Reference, reference compound] are 99 ± 1% and 3.5 nM.
